# Measurements taken from paper PMC3554599, “Hydrophobic analogues of rhodamine B and rhodamine 101: potent fluorescent probes of mitochondria in living C. elegans” (Beilstein Journal of Organic Chemistry, 2012).
# Read-outs that look alike come from different tables or passages of the source.
# Assays:
# [1] = octanol/neutral buffer, cited from earlier work
# [2] = parameters: method as in PMID 15571431; details: 545 nm in ethanol; cited from earlier work
# [3] = MeOH; cited from earlier work
# [4] = tested on: mitochondria in living C. elegans; assay: Confocal laser scanning microscopy of living adult C. elegans treated with fluorophores; assay type: in vivo; details: for bioaccumulation among the fluorophores examined: 100 pM or 1 nM, 20× objective; for selectivity of intracellular staining: living C. elegans; for time to observable fluorescence in some animals / time until most animals became fluorescent: living adult C. elegans
# [5] = log D by fluorescence-based shake-flask method, octanol/phosphate buffer pH 7.4; assay type: physicochemical; details: for logD: octanol/phosphate buffer (1:1), octanol/buffer pH 7.4, fluorescence-based shake-flask, 24 h, 25 °C; for enhanced partitioning into octanol compared with aqueous buffer, relative to parent compound: methyl analogue vs parent rhodamine B / rhodamine 101
# Procedure: Values of log D were measured by dissolution of solids in 1:1 octanol/phosphate buffer (4 mL total volume, 5 mM phosphate, pH 7.4) to provide 5 mM solutions of the fluorophore. Samples were shaken for 24 h at 25 °C to equilibrate. […] Aliquots of these fractions were diluted in octanol (derived from the top fraction) or buffer (derived bottom fraction) to generate stock solutions (10×) appropriate for analysis. These stock solutions were further diluted 10-fold and analyzed in a solvent mixture comprising ethanol (80%), octanol (10%), and phosphate buffer (10%, pH 7.4). The ratio of fluorescence emission at λmax was used to calculate log D.
# [6] = Molar extinction coefficient by linear regression of absorbance; assay type: physicochemical
# Procedure: (§1) The red-shifted spectra of HR101 10 compared with HRB 9 can be explained by greater delocalization of the lone pairs on nitrogen due to restricted rotation about C–N bonds conferred by the fused rings of 10. By using the method of Williams, the quantum yields of 9 and 10 were determined relative to rhodamine B (5) and rhodamine 6G (7, Figure 3, panels A and B), and the extinction coefficients of these compounds were quantified (Figure 3, panel C). The replacement of the carboxylate of rhodamine B (5) and rhodamine 101 (8) with a methyl group slightly red shifted the absorbance and emission spectra in methanol (5 nm and 8 to 9 nm, respectively). […] Additionally, a modest reduction in quantum yield of ~0.3 for both fluorophores was observed.
# (§2) Figure 3 Linear regression used to determine spectroscopic parameters of HRB 9 and HR101 10 in MeOH. Panels A and B: Determination of quantum yields relative to rhodamine B (5) and rhodamine 6G (7). Panel C: Quantification of molar extinction coefficients. TEXT PRINTED IN THE PICTURE: (A) RhB 5: Φ = 0.69 | (A) Rh6G 7: Φ = 0.93 | (B) HRB 9: Φ = 0.39 | (B) HR101 10: Φ = 0.60 | (C) HRB 9: ε555 nm = 83,000 M^-1 cm^-1 | (C) HR101 10: ε576 nm = 107,000 M^-1 cm^-1
# [7] = Quantum yield by the method of Williams in MeOH; assay type: physicochemical; details: relative to rhodamine B and rhodamine 6G
# Procedure: as §1, §2
# C. elegans = details: N2, C. elegans, in vivo, 2 h
molecule,measurement,setting,value
rhodamine B [Rhodamine B (5)],log D octanol/buffer,[1]; ref 46,2.3 [46]
same,molar extinction coefficient,[2],"106,000 M^−1 cm^−1"
same,quantum yield Φ (standard),[3],0.69
"O=C([O-])c1ccccc1C1=c2cc3c4c(c2Oc2c1cc1c5c2CCCN5CCC1)CCC[N+]=4CCC3 [Rhodamine 101 (8), rhodamine 101]","penetration into germline, cells and tissues","[4]; 60× objective, 2 h, rhodamine 101 at 100-fold higher concentration than HRB 9 and HR101 10",did not penetrate into the germline
same,logD,[5],5.2
"CCOC(=O)c1ccccc1-c1c2ccc(=[N+](CC)CC)cc-2oc2cc(N(CC)CC)ccc12 [Basic Violet 11 (6), basic violet 11, reference compound]",bioaccumulation among the fluorophores examined,[4]; 2 h,highest bioaccumulation
same,selectivity of intracellular staining,[4]; 2 h,low selectivity
"CC/N=c1\cc2oc3cc(NCC)c(C)cc3c(-c3ccccc3C(=O)OCC)c-2cc1C [Rhodamine 6G (7), rhodamine 6G]",selectivity of intracellular staining,[4]; 2 h,most specific mitochondrial stains
same,log D octanol/buffer,[1]; ref 37,2.1 [37]
same,quantum yield Φ (standard),[3],0.93
"COC(=O)c1ccccc1-c1c2ccc(=N)cc-2oc2cc(N)ccc12 [Rhodamine 123 (4), rhodamine 123]",log D octanol/buffer,[1]; listed as rhodamine 123 (4),−0.62
same,log D octanol/buffer,[1]; ref 9,−0.6
same,log D octanol/buffer,[1]; ref 37,0.5
"CCN(CC)c1ccc2c(-c3ccccc3C)c3ccc(=[N+](CC)CC)cc-3oc2c1 [HRB 9, 6-(Diethylamino)-N,N-diethyl-9-(2-methylphenyl)-3H-xanthen-3-imine]",bioaccumulation among the fluorophores examined,[4]; 2 h,highest bioaccumulation
same,selectivity of intracellular staining,[4]; 2 h,most specific mitochondrial stains
same,time to observable fluorescence in some animals,[4],≤ 30 min
same,time until most animals became fluorescent,[4],≤ 2 h
same,molar extinction coefficient ε555 nm,[6]; 555 nm in methanol,"83,000 M^-1 cm^-1"
same,quantum yield Φ,[7],0.39
same,"enhanced partitioning into octanol compared with aqueous buffer, relative to parent compound",[5],≥ 10 fold
same,logD,[5],5.9
same,concentration conferring some toxicity,C. elegans,≥ 1000 µM
"Cc1ccccc1C1=c2cc3c4c(c2Oc2c1cc1c5c2CCCN5CCC1)CCC[N+]=4CCC3 [HR101 10, 16-(2-Methylphenyl)-3-oxa-9,23-diazaheptacyclo[17.7.1.1^{5,9}.0^{2,17}.0^{4,15}.0^{23,27}.0^{13,28}]octacosa-1(27),2(17),4,9(28),13,15,18-heptaen-9-ium]",bioaccumulation among the fluorophores examined,[4]; 2 h,highest bioaccumulation
same,selectivity of intracellular staining,[4]; 2 h,most specific mitochondrial stains
same,time to observable fluorescence in some animals,[4],≤ 30 min
same,time until most animals became fluorescent,[4],≤ 2 h
same,molar extinction coefficient ε576 nm,[6]; 576 nm in MeOH,"107,000 M^-1 cm^-1"
same,quantum yield Φ,[7],0.60
same,"enhanced partitioning into octanol compared with aqueous buffer, relative to parent compound",[5],≥ 10 fold
same,logD,[5],6.2
same,concentration conferring some toxicity,C. elegans,≥ 1000 µM
